Where a name gives a salt, the structure may show the parent alone.

The test system of series [1] is spinocerebellar ataxia (SCA). The experiment in a line: Phase 3 clinical study of troriluzole in spinocerebellar ataxia: f-SARA total score change. The settings on record: for LS mean change difference in f-SARA score from baseline vs placebo: Week 48, 200 mg daily. Format: in vivo, human. The procedure:
Phase 3 Clinical Study for Troriluzole in Adult Subjects with Spinocerebellar Ataxia
(§1) The purpose of this study is to compare the efficacy of Troriluzole (200 mg once daily) versus placebo after 48 weeks of treatment in subjects with spinocerebellar ataxia (SCA).
(§2) • Study Type: Interventional (Clinical Trial) • Actual Enrollment: 218 participants • Allocation: Randomized • Intervention Model: Parallel Assignment • Masking: Triple (Participant, Care Provider, Investigator) • Primary Purpose: Treatment • Official Title: A Phase III, Long-Term, Randomized, Double-blind, Placebo-controlled Trial of Troriluzole in Adult Subjects With Spinocerebellar Ataxia.
(§3) • Arm • Experimental: Arm 1: BHV-4157 • Troriluzole 200 mg by mouth • Placebo Comparator: Arm 2: Placebo • Placebo 200 mg by mouth • Intervention/Treatment • Drug: troriluzole • 200 mg by mouth • Drug: placebo • 200 mg by mouth
• 1. Change from Baseline in the total score of the Modified Functional Scale for the Assessment and Rating of Ataxia (f-SARA) after 48 weeks of treatment. [Time Frame: Baseline to week 48] • An increase in the total score indicates a worsening of symptoms.
• 1. Subjects with a known or suspected diagnosis of the following specific hereditary ataxias: SCA1, SCA2, SCA3, SCA6, SCA7, SCA8 and SCA10; currently only enrolling SCA 1, SCA2, SCA3, SCA7, and SCA10 (the cap has been met for SCA6 and SCA8 (on May 31, 2019)); • a. A subject should have a confirmed genotypic diagnosis from a CLIA certified lab (can produce test results); or • b. A subject has a family member that has a confirmed genotypic diagnosis from a CLIA certified lab (can produce test results) and must be willing to undergo genetic testing to confirm underlying SCA diagnosis; or • c. A subject has a confirmed genotypic diagnosis from a lab that is not CLIA certified and must be willing to undergo genetic testing to confirm underlying SCA diagnosis; or • d. […] Ability to ambulate 8 meters without human assistance (canes and other devices allowed). • 3. Screening f-SARA total score ≥3. • 4. Score of ≥1 on gait subsection of the f-SARA. • 5. Determined by the investigator to be medically stable at Baseline/randomization as assessed by medical history, physical examination, laboratory test results, and electrocardiogram testing.
• 1. A ≥2-point difference on the Modified Functional SARA score between screening and baseline. • 2. MMSE score <24. • 3. […] A prominent spasticity or dystonia that, in the opinion of the investigator, will compromise the ability of the SARA instrument to assess underlying ataxia severity. • 5. A score of 4 on any individual item (Items 1-4) of the f-SARA. • 6. Subjects should be excluded at screening or baseline if medical conditions have arisen or there is a change in disease status that could confound the ability of the SARA to accurately reflect changes in ataxia severity. • 7. Active liver disease or a history of hepatic intolerance to medications that in the investigator's judgment, is medically significant.

For series [2], the system named is spinocerebellar ataxia (SCA). Kind of series: Phase 3 clinical study: adverse events of fall, safety and tolerability. Format: in vivo, human. The procedure:
as §1, §2, §3
• 1. Change from baseline in Patient Impression of Function and Activities of Daily Living Scale (PIFAS) score at Randomization Phase Week 48. [Time Frame: Baseline to week 48] • An increase in the total score indicates a worsening of symptoms. • 2. Change from baseline in Activities of Daily Living Scale from the Friedreich's Ataxia Rating Scale (FARS-ADL) at Randomization Week 48. [Time Frame: Baseline to week 48] • An increase in the total score indicates a worsening of symptoms. • 3. Change from baseline in Functional Staging for Ataxia from the Friedreich's Ataxia Rating Scale (FARS-FUNC) at Randomization Phase Week 48. [Time Frame: Baseline to week 48] • An increase in the total score indicates a worsening of symptoms. • 4. Frequency of subjects with the following adverse events (AEs) identified from case report forms: AEs (by severity; by relationship to study drug; overall); SAEs; and AEs leading to treatment discontinuation. [Time Frame: Baseline to week 48]

Series [3] in a line: Solubility of drug substance in water. Format: physicochemical.

For the compound `CN(CC(=O)Nc1nc2ccc(OC(F)(F)F)cc2s1)C(=O)CNC(=O)CN` [troriluzole, 2-amino-N-({methyl-[(6-trifluoromethoxy-benzothiazol-2-ylcarbamoyl)-methyl]-carbamoyl}-methyl)-acetamide monohydrate monohydrochloride], the “LS mean change difference compared to placebo” value in series [1] (SCA3 patient able to walk without assistance at baseline, week 4, 200 mg daily) is “at least −0.67”; in series [1] (SCA3 patient, week 4, 200 mg daily), “at least −0.46”; in series [1] (SCA3 patient, week 8, 200 mg daily (first statement)), “at least −0.12”; in series [1] (SCA3 patient, week 8, 200 mg daily (subgroup not given)), “at least −0.33”; in series [1] (SCA3 patient, week 12, 200 mg daily (first statement)) it was “at least −0.46”; in series [1] (SCA3 patient, week 12, 200 mg daily (subgroup not given)), “at least −0.71”. Further, the “LS mean change difference compared to placebo” value in series [1] (SCA3 patient, week 24, 200 mg daily (first statement)) is given as “at least −0.17”; in series [1] (SCA3 patient, week 24, 200 mg daily (subgroup not given)), “at least −0.40”; in series [1] (SCA3 patient, week 36, 200 mg daily (first statement)), “at least −0.72”; in series [1] (SCA3 patient, week 36, 200 mg daily (subgroup not given)) it was “at least −0.55”. Moreover, the “LS mean change difference in f-SARA score from baseline vs placebo” value was −0.71 in series [1] (SCA3 patients able to walk without assistance at baseline (f-SARA Gait Item score=1), nominal p=0.031, 95% CI −1.36, −0.07) and −0.55 in series [1] (SCA3 subgroup, nominal p=0.053, 95% CI −1.12, 0.01, post-hoc). The “primary endpoint, change from baseline to Week 48 on f-SARA (statistical outcome)” value in series [1] (overall SCA population, 200 mg once daily vs placebo, 48 weeks, p=0.76) is on record as “did not reach statistical significance”. Besides, the “f-SARA score at the 48-week endpoint” value in series [1] (overall study population N=213, mean baseline score 4.9, 200 mg once daily, placebo 5.2) was 5.1. Further, the “reduction of fall risk versus placebo” value is “approximately 50%” in series [2] (SCA3 genotype, patient reported falls as adverse events, nominal p=0.04) and “approximately 59%” in series [2] (all genotypes, patients able to ambulate at baseline (f-SARA Gait Item score=1), nominal p=0.043). Also, the “AE incidence of falls” value in series [2] (SCA3 genotype, placebo 32%) turned out to be 16%; in series [2] (all genotypes, patients able to ambulate at baseline (f-SARA Gait Item score=1), placebo 23%), 10%. In addition, the “safety and tolerability profile” value in series [2] (overall, Phase 3 study) was “favorable safety and tolerability profile”. The solubility in water entry in series [3] is reported as “freely soluble in water”.

For the origin of these results see patent US20260124183A1, “METHODS OF TREATING SPINOCEREBELLAR ATAXIAS” (Biohaven Therapeutics Ltd., priority 2022, published 2026).
